Results reported in US20120010075A1 (priority 2009, published 2012).

Assays:
Phytophthora infestans = type: in vivo, Phytophthora infestans on tomato; conditions: hydrazone 50 ppm with 50 μM CuCl2.2H2O, applied 24 h before inoculation; assessed 7 days after inoculation; tomato late blight
[1] = system: Leptosphaeria nodorum (LEPTNO); experiment: In vitro fungitoxicity of hydrazones with and without copper towards Leptosphaeria nodorum (Example 26); type: cell-based; conditions: test compound Concn. 0.05 μg/mL, 72 h at 25° C.; for inhibition of growth at 0.05 µg/mL: Parastagonospora nodorum, 72 h, copper-minus medium, read-out: LEPTNO % Inhn. Minus Copper Observed; for LEPTNO % Inhn. Plus Copper Observed: copper-plus medium (CuCl2 10 μM)

Compound | melting point [°C] | TLB % Control (Phytophthora infestans) [%] | inhibition of growth at 0.05 µg/mL [1] [%] | LEPTNO % Inhn. Plus Copper Observed [1] [%]
C/C(=N\NC(=O)c1ccccc1Br)c1ccc(Cl)cc1O [Example 462] | 187 to 188 | 86.0 | 0 | 95.0
C/C(=N\NC(=O)c1ccccc1O)c1ccc(Cl)cc1O [Example 463] | 311 to 312 | 61.0 | 5.1 | 96.3
COc1ccc(C(=O)N/N=C(\C)c2cccc(OC)c2O)cc1 [Example 464] | 140 to 141 | 93.0 | 6.7 | 94.8
COc1cccc(/C(C)=N/NC(=O)c2ccc(Br)cc2)c1O [Example 465] | 176 to 177 | 93.0 | 1.7 | 96.5
COc1cccc(/C(C)=N/NC(=O)c2ccc(C(F)(F)F)cc2)c1O [Example 466] | 175 to 176 | 69.0 | 2.7 | 97.9
COc1cccc(/C(C)=N/NC(=O)c2ccccc2Br)c1O [Example 467] | 245 to 247 | 80.0 | 0 | 95.7
COc1cccc(/C(C)=N/NC(=O)c2ccccc2O)c1O [Example 468] | 255 to 257 | 92.0 | 6.2 | 98.1
COc1ccc(C(=O)N/N=C(\C)c2cc(Cl)cc(Cl)c2O)cc1 [Example 469] | 226 to 227 | 95.0 | 1 | 97.8
C/C(=N\NC(=O)c1ccc(C(F)(F)F)cc1)c1cc(Cl)cc(Cl)c1O [Example 470] | 237 to 238 | 93.0 | 4 | 98.0
C/C(=N\NC(=O)c1ccccc1O)c1cc(Cl)cc(Cl)c1O [Example 471] | 306 to 308 | 83.0 | 7.9 | 97.8
COc1ccc(/C(C)=N/NC(=O)c2ccc(C(F)(F)F)cc2)c(O)c1 [Example 472] | 251 to 252 | 49.0 | 0 | 97.7
COc1ccc(/C(C)=N/NC(=O)c2ccccc2O)c(O)c1 [Example 473] | 276 to 278 | 78.0 | 0 | 97.5
O=C(N/N=C/c1cc(Cl)cc(Cl)c1O)c1ccc(Cl)cc1O [Example 474] | 276 to 279 | 100.0 | 39.2 | 97.6
O=C(N/N=C/c1cc(Cl)cc(Cl)c1O)c1cc(Cl)ccc1O [Example 475] | 287 to 292 | 100.0 | 33.8 | 97.1
COc1ccc(/C(C)=N/NC(=O)c2ccccc2Br)c(O)c1 [Example 476] | 205 to 206 | 69.0 | 0 | 93.9
COc1ccc(C(=O)N/N=C(\C)c2cc(Cl)cc(Cl)c2O)c(O)c1 [Example 477] | 310 to 312 | 93.0 | 6.2 | 83.4
COc1ccc(O)c(C(=O)N/N=C(\C)c2cc(Cl)cc(Cl)c2O)c1 [Example 478] | 327 to 331 | 65.0 | 0.7 | 94.7
C/C(=N\NC(=O)c1c(C)cccc1O)c1cc(Cl)cc(Cl)c1O [Example 479] | 245 | 97.0 | 0 | 97.5
C/C(=N\NC(=O)c1cccc(Cl)c1O)c1cc(Cl)cc(Cl)c1O [Example 481] | 260 to 262 | 76.0 | 10.3 | 97.8
COc1ccc(C(=O)N/N=C(\C)c2ccc(OC)cc2O)cc1 [Example 482] | 226 to 227 | 66.0 | 0 | 96.4
COc1ccc(/C(C)=N/NC(=O)c2ccc(Br)cc2)c(O)c1 [Example 483] | 239 to 241 | 63.0 | 0 | 97.9

Compound | melting point [°C] | TLB % Control (Phytophthora infestans) [%] | inhibition of growth at 0.05 µg/mL [1] [%] | LEPTNO % Inhn. Plus Copper Observed [1] [%]
COc1cccc(C(=O)N/N=C(\C)c2cc(Cl)cc(Cl)c2O)c1O [Example 484] | 258 to 259 | 88.0 | 12.6 | 93.2
Cc1cccc(O)c1C(=O)N/N=C/c1cc(Cl)cc(Cl)c1O [Example 485] | 217 to 219 | 95.0 | 8 | 96.7
COc1ccc(C(=O)N/N=C/c2cc(Cl)cc(Cl)c2O)c(O)c1 [Example 486] | 267 to 269 | 95.0 | 12.8 | 96.6
COc1ccc(O)c(C(=O)N/N=C/c2cc(Cl)cc(Cl)c2O)c1 [Example 487] | 250 to 252 | 100.0 | 11.2 | 93.9
O=C(N/N=C/c1cc(Cl)cc(Cl)c1O)c1ccc2ccccc2c1O [Example 488] | 276 to 278 | 72.0 | 20.1 | 92.6
C/C(=N\NC(=O)c1ccc(Cl)cc1O)c1cc(Cl)cc(Cl)c1O [Example 489] | 314 to 317 | 85.0 | 15.8 | 97.8
C/C(=N\NC(=O)c1cc(Cl)ccc1O)c1cc(Cl)cc(Cl)c1O [Example 490] | 322 to 325 | 55.0 | 31.5 | 97.0
C/C(=N\NC(=O)c1ccc(C)cc1O)c1cc(Cl)cc(Cl)c1O [Example 491] | 320 to 323 | 75.0 | 25 | 97.5
C/C(=N\NC(=O)c1ccccc1)c1cccc(Cl)c1O [Example 492] | 202 to 203 | 93.0 | 0 | 98.1
C/C(=N\NC(=O)c1ccccc1C)c1cccc(Cl)c1O [Example 493] | 193 to 198 | 95.0 | 0 | 97.8
C/C(=N\NC(=O)c1cccc(C)c1)c1cccc(Cl)c1O [Example 494] | 164 to 178 | 96.0 | 0 | 97.7
C/C(=N\NC(=O)c1ccc(C)cc1)c1cccc(Cl)c1O [Example 495] | 195 to 200 | 91.0 | 0 | 97.3
C/C(=N\NC(=O)c1ccccc1Cl)c1cccc(Cl)c1O [Example 496] | 189 to 193 | 94.0 | 0.7 | 97.8
C/C(=N\NC(=O)c1cccc(Cl)c1)c1cccc(Cl)c1O [Example 497] | 197 to 219 | 75.0 | 0 | 98.1
C/C(=N\NC(=O)c1ccc(Cl)cc1)c1cccc(Cl)c1O [Example 498] | 208 to 209 | 85.0 | 0 | 97.5
COc1ccc(C(=O)N/N=C(\C)c2cccc(Cl)c2O)cc1 [Example 499] | 203 to 204 | 85.0 | 0 | 97.4
C/C(=N\NC(=O)c1ccc(Br)cc1)c1cccc(Cl)c1O [Example 500] | 226 to 232 | 80.0 | 9.2 | 93.2
C/C(=N\NC(=O)c1ccc(C(F)(F)F)cc1)c1cccc(Cl)c1O [Example 501] | 250 to 256 | 89.0 | 0.5 | 98.0
C/C(=N\NC(=O)c1ccccc1Br)c1cccc(Cl)c1O [Example 502] | 178 to 183 | 85.0 | 4.2 | 97.2
C/C(=N\NC(=O)c1ccccc1O)c1cccc(Cl)c1O [Example 503] | 283 to 287 | 66.0 | 5.2 | 97.0
C/C(=N\NC(=O)c1ccccc1C)c1cc(Cl)ccc1O [Example 505] | 192 to 193 | 46.0 | 7.1 | 97.3
